According to ChEMBL document CHEMBL5625242, “Discovery of brain permeable 2-Azabicyclo[2.2.2]octane sulfonamides as a novel class of presenilin-1 selective γ-secretase inhibitors” (Eur J Med Chem, 2023):
Converted amounts (≈) assume the structure as drawn.

Key:
[1] = Inhibition of human PSEN1/APH1A expressed in MEF cells with Psen1/2 double knockout/Aph1ABC triple knockout by ELISA; assay type: cell-based
[2] = Inhibition of human PSEN1/APH1B expressed in MEF cells with Psen1/2 double knockout/Aph1ABC triple knockout by ELISA; assay type: cell-based
[3] = Inhibition of human PSEN2/APH1A expressed in MEF cells with Psen1/2 double knockout/Aph1ABC triple knockout by ELISA; assay type: cell-based
[4] = Inhibition of human PSEN2/APH1B expressed in MEF cells with Psen1/2 double knockout/Aph1ABC triple knockout by ELISA; assay type: cell-based
Cytochrome P450 2D6 = Cytochrome P450 2D6 (Homo sapiens, UniProt P10635); assay: Inhibition of human CYP2D6 using dextrometorphan as substrate by fluorescence based assay; assay type: ADME
Chain of Cytochrome P450 2D6 (P10635 whole entry): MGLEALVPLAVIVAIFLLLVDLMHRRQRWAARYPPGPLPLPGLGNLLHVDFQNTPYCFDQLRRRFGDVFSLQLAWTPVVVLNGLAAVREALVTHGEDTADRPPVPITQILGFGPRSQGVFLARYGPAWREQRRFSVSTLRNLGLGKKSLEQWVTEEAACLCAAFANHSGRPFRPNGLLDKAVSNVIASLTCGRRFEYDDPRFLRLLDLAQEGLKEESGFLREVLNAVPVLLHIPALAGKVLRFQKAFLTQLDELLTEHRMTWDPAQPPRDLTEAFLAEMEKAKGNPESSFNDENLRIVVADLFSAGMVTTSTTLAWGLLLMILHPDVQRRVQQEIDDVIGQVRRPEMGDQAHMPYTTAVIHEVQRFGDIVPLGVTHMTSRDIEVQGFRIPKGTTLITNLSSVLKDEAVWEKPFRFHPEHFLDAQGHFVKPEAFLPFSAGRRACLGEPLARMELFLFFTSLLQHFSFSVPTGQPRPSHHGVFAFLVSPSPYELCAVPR

[5] = Metabolic stability in human liver microsomes assessed as intrinsic clearance; assay type: ADME, Microsome; settings: microsomes
[6] = Metabolic stability in mouse liver microsomes assessed as intrinsic clearance; assay type: ADME, Microsome; settings: microsomes
Cytochrome P450 3A4 = Cytochrome P450 3A4 (Homo sapiens, UniProt P08684); assay: Inhibition of human CYP3A4 using midazolam as substrate by fluorescence based assay; assay type: ADME
Chain of Cytochrome P450 3A4 (P08684 whole entry): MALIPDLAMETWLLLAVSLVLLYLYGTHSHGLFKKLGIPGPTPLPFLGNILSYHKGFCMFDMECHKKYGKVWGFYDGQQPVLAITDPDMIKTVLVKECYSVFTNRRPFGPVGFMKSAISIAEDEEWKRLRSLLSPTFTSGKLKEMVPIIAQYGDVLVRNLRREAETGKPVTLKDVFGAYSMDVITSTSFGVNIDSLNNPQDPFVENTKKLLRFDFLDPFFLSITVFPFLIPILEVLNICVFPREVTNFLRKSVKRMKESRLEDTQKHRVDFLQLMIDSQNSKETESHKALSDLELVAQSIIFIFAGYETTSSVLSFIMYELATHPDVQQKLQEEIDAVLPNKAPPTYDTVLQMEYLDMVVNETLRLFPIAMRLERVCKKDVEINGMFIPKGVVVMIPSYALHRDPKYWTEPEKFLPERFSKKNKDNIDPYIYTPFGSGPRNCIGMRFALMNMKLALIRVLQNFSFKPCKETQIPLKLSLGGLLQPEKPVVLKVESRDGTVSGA

Cytochrome P450 2C8 = molecular target: T1, Cytochrome P450 2C8 (Homo sapiens, UniProt P10632); assay: Inhibition of human CYP2C8 using amodiaquine as substrate by fluorescence based assay; assay type: ADME
T1 sequence (P10632 whole entry): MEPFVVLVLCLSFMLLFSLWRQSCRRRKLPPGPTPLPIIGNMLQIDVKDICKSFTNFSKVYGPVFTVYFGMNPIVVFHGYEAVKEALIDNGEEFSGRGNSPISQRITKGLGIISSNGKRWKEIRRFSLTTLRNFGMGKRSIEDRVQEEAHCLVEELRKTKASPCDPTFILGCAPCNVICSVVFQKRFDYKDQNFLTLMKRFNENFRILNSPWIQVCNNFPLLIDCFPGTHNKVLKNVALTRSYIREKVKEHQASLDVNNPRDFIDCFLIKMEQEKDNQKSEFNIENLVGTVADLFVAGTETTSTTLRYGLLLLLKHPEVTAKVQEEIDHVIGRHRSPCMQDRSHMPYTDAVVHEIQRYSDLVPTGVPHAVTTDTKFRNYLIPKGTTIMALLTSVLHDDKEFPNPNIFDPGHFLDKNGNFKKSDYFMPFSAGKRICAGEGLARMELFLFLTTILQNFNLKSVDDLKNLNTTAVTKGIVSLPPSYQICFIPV

Cytochrome P450 2C9 = Cytochrome P450 2C9 (Homo sapiens, UniProt P11712); assay: Inhibition of human CYP2C9 using tolbutamide as substrate by fluorescence based assay; assay type: ADME
Chain of Cytochrome P450 2C9 (P11712 whole entry): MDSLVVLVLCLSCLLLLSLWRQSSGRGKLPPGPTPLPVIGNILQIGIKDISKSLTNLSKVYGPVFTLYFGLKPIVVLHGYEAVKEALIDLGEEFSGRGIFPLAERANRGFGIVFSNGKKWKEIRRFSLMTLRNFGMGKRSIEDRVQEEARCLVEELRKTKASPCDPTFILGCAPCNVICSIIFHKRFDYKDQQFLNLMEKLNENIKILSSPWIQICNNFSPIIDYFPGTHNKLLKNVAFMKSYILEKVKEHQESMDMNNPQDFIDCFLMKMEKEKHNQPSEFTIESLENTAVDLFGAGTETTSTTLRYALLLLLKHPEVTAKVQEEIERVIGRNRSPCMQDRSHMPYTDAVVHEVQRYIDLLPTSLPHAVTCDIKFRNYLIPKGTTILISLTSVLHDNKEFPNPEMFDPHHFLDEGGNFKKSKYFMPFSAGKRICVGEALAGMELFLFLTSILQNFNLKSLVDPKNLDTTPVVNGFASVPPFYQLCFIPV

Cytochrome P450 2C19 = Cytochrome P450 2C19 (Homo sapiens, UniProt P33261); assay: Inhibition of human CYP2C19 using S-mephenytoin as substrate by fluorescence based assay; assay type: ADME
Chain of Cytochrome P450 2C19 (P33261 whole entry): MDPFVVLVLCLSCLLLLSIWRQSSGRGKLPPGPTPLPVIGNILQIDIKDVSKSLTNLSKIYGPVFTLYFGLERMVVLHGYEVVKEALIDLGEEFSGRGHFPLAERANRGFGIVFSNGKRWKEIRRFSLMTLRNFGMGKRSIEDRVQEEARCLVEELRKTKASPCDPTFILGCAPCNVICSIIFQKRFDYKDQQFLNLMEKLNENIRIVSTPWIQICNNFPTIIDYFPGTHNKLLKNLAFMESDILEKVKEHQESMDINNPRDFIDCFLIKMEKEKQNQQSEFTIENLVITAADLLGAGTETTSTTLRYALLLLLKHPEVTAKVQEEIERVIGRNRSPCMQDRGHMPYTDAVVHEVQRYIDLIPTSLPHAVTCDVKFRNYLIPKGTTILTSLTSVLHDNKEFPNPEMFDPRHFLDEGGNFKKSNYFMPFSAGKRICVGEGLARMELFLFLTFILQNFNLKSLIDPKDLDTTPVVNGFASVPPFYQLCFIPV

Cytochrome P450 1A2 = molecular target: T2, Cytochrome P450 1A2 (Homo sapiens, UniProt P05177); assay: Inhibition of human CYP1A2 using phenacetin as substrate by fluorescence based assay; assay type: ADME
T2 sequence (P05177 whole entry): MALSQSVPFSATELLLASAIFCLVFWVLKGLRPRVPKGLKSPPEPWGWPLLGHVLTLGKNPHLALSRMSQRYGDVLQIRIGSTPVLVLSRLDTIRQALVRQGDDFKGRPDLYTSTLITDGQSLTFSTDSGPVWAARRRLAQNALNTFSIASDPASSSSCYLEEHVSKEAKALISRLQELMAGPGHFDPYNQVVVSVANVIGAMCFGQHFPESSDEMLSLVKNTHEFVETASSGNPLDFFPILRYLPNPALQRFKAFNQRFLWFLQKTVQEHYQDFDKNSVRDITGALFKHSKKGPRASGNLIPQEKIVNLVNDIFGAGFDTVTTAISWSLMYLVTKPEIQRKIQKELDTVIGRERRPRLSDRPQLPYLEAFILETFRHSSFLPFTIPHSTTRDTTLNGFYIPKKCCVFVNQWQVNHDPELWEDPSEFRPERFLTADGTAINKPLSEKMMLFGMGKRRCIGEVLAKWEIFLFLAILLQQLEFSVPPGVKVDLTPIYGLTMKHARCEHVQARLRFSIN

[7] = Protein binding in human plasma assessed as free fraction at 5 uM incubated for 4.5 hrs by HPLC analysis; assay type: ADME, cell-free
[8] = Protein binding in mouse plasma assessed as free fraction at 5 uM incubated for 4.5 hrs by HPLC analysis; assay type: ADME, cell-free
[9] = Free fraction in rat brain homogenate at 5 uM incubated for 5 hrs by HPLC-MS/MS analysis; assay type: ADME, tissue-based
[10] = Kinetic solubility of compound at pH 2; assay type: physicochemical; settings: buffer, read-out: Kinetic_solubility
[11] = Kinetic solubility of compound at pH 4; assay type: physicochemical; settings: buffer, read-out: Kinetic_solubility
[12] = Kinetic solubility of compound at pH 7.4; assay type: physicochemical; settings: buffer, read-out: Kinetic_solubility
human MDR1 [13] = assay: Apparent permeability across apical to basal side in MDCK cells transfected with human MDR1 at 5 uM by LC-MS/MS analysis; assay type: ADME, cell-based, Canis lupus familiaris; settings: dog
human MDR1 [14] = assay: Efflux ratio of apparent permeability basal to apical side over apical to basal side in MDCK cells transfected with human MDR1 at 5 uM by LC-MS/MS analysis; assay type: ADME, cell-based, Canis lupus familiaris; settings: dog
[15] = molecular target: Voltage-gated inwardly rectifying potassium channel KCNH2 (Homo sapiens, UniProt Q12809); assay: Inhibition of hERG; assay type: toxicity
Chain of Voltage-gated inwardly rectifying potassium channel KCNH2 (Q12809 whole entry): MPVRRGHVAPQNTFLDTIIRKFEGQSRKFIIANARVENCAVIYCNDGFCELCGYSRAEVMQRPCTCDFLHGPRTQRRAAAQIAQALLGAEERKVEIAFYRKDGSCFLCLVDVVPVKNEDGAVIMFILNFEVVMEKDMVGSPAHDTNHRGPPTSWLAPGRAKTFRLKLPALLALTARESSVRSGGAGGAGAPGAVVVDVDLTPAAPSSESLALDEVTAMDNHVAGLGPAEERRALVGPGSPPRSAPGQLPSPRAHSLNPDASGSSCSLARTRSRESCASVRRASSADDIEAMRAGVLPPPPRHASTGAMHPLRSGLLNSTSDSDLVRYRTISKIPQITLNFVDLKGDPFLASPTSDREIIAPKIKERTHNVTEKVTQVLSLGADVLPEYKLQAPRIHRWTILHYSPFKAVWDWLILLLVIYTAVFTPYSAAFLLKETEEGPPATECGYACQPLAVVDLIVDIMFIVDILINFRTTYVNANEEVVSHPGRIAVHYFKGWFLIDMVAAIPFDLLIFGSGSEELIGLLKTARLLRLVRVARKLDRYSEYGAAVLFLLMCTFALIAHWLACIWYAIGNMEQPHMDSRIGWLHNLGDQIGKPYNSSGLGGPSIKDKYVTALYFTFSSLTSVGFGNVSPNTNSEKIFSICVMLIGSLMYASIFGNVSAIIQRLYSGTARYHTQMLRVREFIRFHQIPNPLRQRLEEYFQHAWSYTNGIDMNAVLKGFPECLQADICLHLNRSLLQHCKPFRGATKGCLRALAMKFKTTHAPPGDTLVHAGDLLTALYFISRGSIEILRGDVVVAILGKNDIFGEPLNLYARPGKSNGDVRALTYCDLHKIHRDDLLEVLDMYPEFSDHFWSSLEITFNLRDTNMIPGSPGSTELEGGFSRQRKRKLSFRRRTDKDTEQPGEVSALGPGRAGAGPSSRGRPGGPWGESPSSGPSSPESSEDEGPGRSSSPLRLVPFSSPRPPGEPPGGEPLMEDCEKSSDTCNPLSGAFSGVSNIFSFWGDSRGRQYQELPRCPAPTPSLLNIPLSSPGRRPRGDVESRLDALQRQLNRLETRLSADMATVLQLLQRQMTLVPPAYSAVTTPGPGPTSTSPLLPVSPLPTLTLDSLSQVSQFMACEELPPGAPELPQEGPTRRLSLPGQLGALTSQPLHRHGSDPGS

calcium channel = assay: Inhibition of rat calcium channel; assay type: toxicity
sodium channel = assay: Inhibition of rat sodium channel; assay type: toxicity
[16] = Drug concentration in Swiss mouse plasma at 2.5 mg/kg, iv measured at 5 mins post-dose; assay type: ADME, organism-based
[17] = Drug concentration in Swiss mouse brain at 2.5 mg/kg, iv measured at 5 mins post-dose; assay type: ADME, organism-based; settings: read-out: Ct
[18] = Ratio of drug concentration in brain to plasma of Swiss mouse at 2.5 mg/kg, iv measured at 5 mins post-dose; assay type: ADME, organism-based; settings: read-out: BPR
[19] = Unbound drug concentration in Swiss mouse plasma at 2.5 mg/kg, iv measured at 5 mins post-dose; assay type: ADME, organism-based; settings: in vivo
[20] = Ratio of unbound drug concentration in brain to plasma in Swiss mouse at 2.5 mg/kg, iv measured at 5 mins post-dose; assay type: ADME, organism-based; settings: read-out: K(p,uu,brain)
[21] = Half life in CD-1 mouse at 30 mg/kg, po measured at 4 hrs post-dose; assay type: ADME, organism-based; settings: in vivo
[22] = Tmax in CD-1 mouse at 30 mg/kg, po measured at 4 hrs post-dose; assay type: ADME, organism-based; settings: in vivo
[23] = AUClast in CD-1 mouse at 30 mg/kg, po measured at 4 hrs post-dose; assay type: ADME, organism-based; settings: in vivo
[24] = AUC (0 to infinity) in CD-1 mouse at 30 mg/kg, po measured at 4 hrs post-dose; assay type: ADME, organism-based; settings: in vivo
[25] = Volume of distribution at steady state in CD-1 mouse at 30 mg/kg, po measured at 4 hrs post-dose; assay type: ADME, organism-based; settings: in vivo
[26] = MRT in CD-1 mouse at 30 mg/kg, po measured at 4 hrs post-dose; assay type: ADME, organism-based; settings: in vivo

Row | SMILES | IC50 [1] [µM] | IC50 [2] [µM] | IC50 [3] [µM] | IC50 [4] [µM] | IC50 (Cytochrome P450 2D6) [µM] | IC50 (Cytochrome P450 3A4) [µM] | IC50 (Cytochrome P450 2C8) [µM] | IC50 (Cytochrome P450 2C9) [µM] | IC50 (Cytochrome P450 2C19) [µM] | IC50 (Cytochrome P450 1A2) [µM] | fraction unbound at 4.5 h, 5 µM [8] | fraction unbound at 5 h, 5 µM [9] | solubility kinetic [10] [µM] | solubility kinetic [11] [µM] | solubility kinetic [12] [µM] | Papp A→B at 5 µM (human MDR1 [13]) [×10⁻⁶ cm/s] | efflux ratio at 5 µM (human MDR1 [14]) | IC50 [15] [µM] | IC50 (calcium channel) [µM] | IC50 (sodium channel) [µM] | other results
1 | N#Cc1ccc([C@@H]2[C@@H]3CC[C@@H](C[C@@H]3O)N2S(=O)(=O)c2ccc(Cl)cc2)cn1 | 0.072 | 0.0129 | 1.23 | 0.776 | > 10 | > 10 | > 10 | > 10 | > 10 | > 10 | 0.0869 | 0.119 | 13 (≈ 5.25 µg/mL) | 13 (≈ 5.25 µg/mL) | 7 (≈ 2.83 µg/mL) | 2.5 | 32.3 | > 10 | > 10 | > 10 | CLH [5]: 78.4 µL/min/mg; CLH [6]: 110 µL/min/mg; fraction unbound at 4.5 h, 5 µM [7]: 0.156; concentration at 5 min [16]: 731 ng/mL; concentration at 5 min [17]: 363 ng/g; Kp at 5 min [18]: 0.5; Cp(f) [19]: 63.5 ng/mL; Kp uu at 5 min [20]: 0.68
2 | O=S(=O)(c1ccc(Cl)cc1)N1[C@H]2CC[C@@H]([C@H]1c1ccc(C(F)(F)F)cc1)[C@@H](O)C2 | 0.019 | 0.0055 | 1.95 | 2.14 | > 10 | 3 | > 10 | > 10 | > 10 | > 10 | 0.00309 | 0.00115 | 13 (≈ 5.8 µg/mL) | 12 (≈ 5.35 µg/mL) | 18 (≈ 8.03 µg/mL) | 6.3 | 1.95 | > 10 | > 10 | > 10 | concentration at 5 min [16]: 680 ng/mL; concentration at 5 min [17]: 3620 ng/g; Kp at 5 min [18]: 5.4; Cp(f) [19]: 2.1 ng/mL; Kp uu at 5 min [20]: 1.97; half-life [21]: 28.9 min; Tmax [22]: 120 min; AUC(0-t) at 4 h [23]: 163 ng·h/mL; AUC [24]: 174 ng·h/mL; Vdss [25]: 3.43 L/kg; MRT [26]: 27.2 min
